# Reference: patent US12077503B2, “Substituted cyclic amides and their use as herbicides” (FMC CORPORATION, priority 2015, dated 2024)
# How the values were obtained:
# Format in all cases: in vivo
# corn (Zea mays) [1] = test: Test G Post-Emergence Protocol; conditions: Zea mays, post-emergence, 312 h; for plant injury at 15.625 g/ha: 15.625 g ai/ha, evaluated after 13 days (100=total damage to plant; 0=no damage to plant), read-out: Corn damage rating; for plant injury at 62.5 g/ha: 62.5 g ai/ha, read-out: Corn damage rating (100=total damage to plant; 0=no damage to plant); for plant injury at 62.5 g/ha / plant injury at 250 g/ha: evaluated after 13 days; for plant injury at 250 g/ha: 250 g ai/ha, read-out: damage to plant, Corn (100=total damage to plant; 0=no damage to plant)
# Method in brief: (§1)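 Foliar application was made 8 days after sowing, using an aqueous spray of the active in acetone/water (50:50) with 0.5% Tween 20, at doses of 15.625, 62.5 or 250 g/ha. Injury was assessed 13 days later, where 100 meant the plant was fully damaged.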
# [2] = test system: giant foxtail (Setaria faberi); test: Test G Post-Emergence Protocol; conditions: Setaria faberi, post-emergence, 312 h; for pest or weed control at 15.625 g/ha: 15.625 g ai/ha, evaluated after 13 days (100=total damage to plant; 0=no damage to plant), read-out: Foxtail, Giant damage rating; for pest or weed control at 62.5 g/ha: 62.5 g ai/ha, read-out: Foxtail, Giant damage rating (100=total damage to plant; 0=no damage to plant); for pest or weed control at 62.5 g/ha / pest or weed control at 250 g/ha: evaluated after 13 days; for pest or weed control at 250 g/ha: 250 g ai/ha, read-out: damage to plant, Foxtail, Giant (100=total damage to plant; 0=no damage to plant)
# Method in brief: as §1
# [3] = test system: barnyardgrass (Echinochloa crus-galli); test: Test G Post-Emergence Protocol; conditions: Echinochloa crus-galli, post-emergence, 312 h; for pest or weed control at 15.625 g/ha: 15.625 g ai/ha, evaluated after 13 days (100=total damage to plant; 0=no damage to plant), read-out: Barnyardgrass damage rating; for pest or weed control at 62.5 g/ha: 62.5 g ai/ha, read-out: Barnyardgrass damage rating (100=total damage to plant; 0=no damage to plant); for pest or weed control at 62.5 g/ha / pest or weed control at 250 g/ha: evaluated after 13 days; for pest or weed control at 250 g/ha: 250 g ai/ha, read-out: damage to plant, Barnyardgrass (100=total damage to plant; 0=no damage to plant)
# Method in brief: as §1
# [4] = test system: ivy-leaved morning glory (Ipomoea hederacea); test: Test G Post-Emergence Protocol; conditions: Ipomoea, post-emergence, 312 h; for pest or weed control at 15.625 g/ha: 15.625 g ai/ha, evaluated after 13 days (100=total damage to plant; 0=no damage to plant), read-out: Morningglory, Ivy-leaved damage rating; for pest or weed control at 62.5 g/ha: 62.5 g ai/ha, read-out: Morningglory, Ivy-leaved damage rating (100=total damage to plant; 0=no damage to plant); for pest or weed control at 62.5 g/ha / pest or weed control at 250 g/ha: evaluated after 13 days; for pest or weed control at 250 g/ha: 250 g ai/ha, read-out: damage to plant, Morningglory, Ivy-leaved (100=total damage to plant; 0=no damage to plant)
# Method in brief: as §1
# [5] = test system: redroot pigweed (Amaranthus retroflexus); test: Test G Post-Emergence Protocol; conditions: Amaranthus retroflexus, post-emergence, 312 h; for pest or weed control at 15.625 g/ha: 15.625 g ai/ha, evaluated after 13 days (100=total damage to plant; 0=no damage to plant), read-out: Pigweed, Redroot damage rating; for pest or weed control at 62.5 g/ha: 62.5 g ai/ha, read-out: Pigweed, Redroot damage rating (100=total damage to plant; 0=no damage to plant); for pest or weed control at 62.5 g/ha / pest or weed control at 250 g/ha: evaluated after 13 days; for pest or weed control at 250 g/ha: 250 g ai/ha, read-out: damage to plant, Pigweed, Redroot (100=total damage to plant; 0=no damage to plant)
# Method in brief: as §1
# [6] = test system: velvetleaf (Abutilon theophrasti); test: Test G Post-Emergence Protocol; conditions: Abutilon theophrasti, post-emergence, 312 h; for pest or weed control at 15.625 g/ha: 15.625 g ai/ha, evaluated after 13 days (100=total damage to plant; 0=no damage to plant), read-out: Velvetleaf damage rating; for pest or weed control at 62.5 g/ha: 62.5 g ai/ha, read-out: Velvetleaf damage rating (100=total damage to plant; 0=no damage to plant); for pest or weed control at 62.5 g/ha / pest or weed control at 250 g/ha: evaluated after 13 days; for pest or weed control at 250 g/ha: 250 g ai/ha, read-out: damage to plant, Velvetleaf (100=total damage to plant; 0=no damage to plant)
# Method in brief: as §1
# corn (Zea mays) [7] = test: Test G Pre-Emergence Protocol; conditions: Zea mays, pre-emergence, 312 h, evaluated after 13 days; for plant injury at 15.625 g/ha: 15.625 g ai/ha; for plant injury at 15.625 g/ha / plant injury at 250 g/ha: read-out: Corn damage rating (100=total damage to plant; 0=no damage to plant); for plant injury at 62.5 g/ha: 62.5 g ai/ha, 100=total damage to plant, 0=no damage to plant, read-out: plant damage rating, Corn; for plant injury at 250 g/ha: 250 g ai/ha
# Method in brief: (§2)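 Under a 24/16° C day/night regime with 14 h light and 65% humidity, sown pots were sprayed after one day with compound (15.625, 62.5 or 250 g/ha; 50:50 acetone/water, 0.5% Tween 20). Damage was assessed visually 13 days later, 0 to 100.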
# [8] = test system: giant foxtail (Setaria faberi); test: Test G Pre-Emergence Protocol; conditions: Setaria faberi, pre-emergence, 312 h, evaluated after 13 days; for pest or weed control at 15.625 g/ha: 15.625 g ai/ha; for pest or weed control at 15.625 g/ha / pest or weed control at 250 g/ha: read-out: Foxtail, Giant damage rating (100=total damage to plant; 0=no damage to plant); for pest or weed control at 62.5 g/ha: 62.5 g ai/ha, 100=total damage to plant, 0=no damage to plant, read-out: plant damage rating, Foxtail, Giant; for pest or weed control at 250 g/ha: 250 g ai/ha
# Method in brief: as §2
# [9] = test system: barnyardgrass (Echinochloa crus-galli); test: Test G Pre-Emergence Protocol; conditions: Echinochloa crus-galli, pre-emergence, 312 h, evaluated after 13 days; for pest or weed control at 15.625 g/ha: 15.625 g ai/ha, read-out: Barnyard grass damage rating (100=total damage to plant; 0=no damage to plant); for pest or weed control at 62.5 g/ha: 62.5 g ai/ha, 100=total damage to plant, 0=no damage to plant, read-out: plant damage rating, Barnyardgrass; for pest or weed control at 250 g/ha: 250 g ai/ha, read-out: Barnyardgrass damage rating (100=total damage to plant; 0=no damage to plant)
# Method in brief: as §2
# [10] = test system: ivy-leaved morning glory (Ipomoea hederacea); test: Test G Pre-Emergence Protocol; conditions: Ipomoea, pre-emergence, 312 h, evaluated after 13 days; for pest or weed control at 15.625 g/ha: 15.625 g ai/ha, read-out: Morning-glory, Ivy-leaved damage rating (100=total damage to plant; 0=no damage to plant); for pest or weed control at 62.5 g/ha: 62.5 g ai/ha, 100=total damage to plant, 0=no damage to plant, read-out: plant damage rating, Morningglory, Ivy-leaved; for pest or weed control at 250 g/ha: 250 g ai/ha, read-out: Morningglory, Ivy-leaved damage rating (100=total damage to plant; 0=no damage to plant)
# Method in brief: as §2
# [11] = test system: redroot pigweed (Amaranthus retroflexus); test: Test G Pre-Emergence Protocol; conditions: Amaranthus retroflexus, pre-emergence, 312 h, evaluated after 13 days; for pest or weed control at 15.625 g/ha: 15.625 g ai/ha; for pest or weed control at 15.625 g/ha / pest or weed control at 250 g/ha: read-out: Pigweed, Redroot damage rating (100=total damage to plant; 0=no damage to plant); for pest or weed control at 62.5 g/ha: 62.5 g ai/ha, 100=total damage to plant, 0=no damage to plant, read-out: plant damage rating, Pigweed, Redroot; for pest or weed control at 250 g/ha: 250 g ai/ha
# Method in brief: as §2
# [12] = test system: velvetleaf (Abutilon theophrasti); test: Test G Pre-Emergence Protocol; conditions: Abutilon theophrasti, pre-emergence, 312 h, evaluated after 13 days; for pest or weed control at 15.625 g/ha: 15.625 g ai/ha; for pest or weed control at 15.625 g/ha / pest or weed control at 250 g/ha: read-out: Velvetleaf damage rating (100=total damage to plant; 0=no damage to plant); for pest or weed control at 62.5 g/ha: 62.5 g ai/ha, 100=total damage to plant, 0=no damage to plant, read-out: plant damage rating, Velvetleaf; for pest or weed control at 250 g/ha: 250 g ai/ha
# Method in brief: as §2
SMILES,plant injury at 15.625 g/ha (corn (Zea mays) [1]) [%],plant injury at 62.5 g/ha (corn (Zea mays) [1]) [%],plant injury at 250 g/ha (corn (Zea mays) [1]) [%],pest or weed control at 15.625 g/ha [2] [%],pest or weed control at 62.5 g/ha [2] [%],pest or weed control at 250 g/ha [2] [%],pest or weed control at 15.625 g/ha [3] [%],pest or weed control at 62.5 g/ha [3] [%],pest or weed control at 250 g/ha [3] [%],pest or weed control at 15.625 g/ha [4] [%],pest or weed control at 62.5 g/ha [4] [%],pest or weed control at 250 g/ha [4] [%],pest or weed control at 15.625 g/ha [5] [%],pest or weed control at 62.5 g/ha [5] [%],pest or weed control at 250 g/ha [5] [%],pest or weed control at 15.625 g/ha [6] [%],pest or weed control at 62.5 g/ha [6] [%],pest or weed control at 250 g/ha [6] [%],plant injury at 15.625 g/ha (corn (Zea mays) [7]) [%],plant injury at 62.5 g/ha (corn (Zea mays) [7]) [%],also measured
CN1C[C@@H](c2ccc(C(F)(F)F)cc2)[C@H](C(=O)Nc2ccn(C)n2)C1=O (racemic) [Compound 1615],0,0,0,0,0,0,0,0,0,0,0,0,0,0,0,0,0,0,0,0,plant injury at 250 g/ha (corn (Zea mays) [7]): 0%; pest or weed control at 15.625 g/ha [8]: 0%; pest or weed control at 62.5 g/ha [8]: 0%; pest or weed control at 250 g/ha [8]: 0%; pest or weed control at 15.625 g/ha [9]: 0%; pest or weed control at 62.5 g/ha [9]: 0%; pest or weed control at 250 g/ha [9]: 0%; pest or weed control at 15.625 g/ha [10]: 0%; pest or weed control at 62.5 g/ha [10]: 0%; pest or weed control at 250 g/ha [10]: 0%; pest or weed control at 15.625 g/ha [11]: 0%; pest or weed control at 62.5 g/ha [11]: 0%; pest or weed control at 250 g/ha [11]: 0%; pest or weed control at 15.625 g/ha [12]: 0%; pest or weed control at 62.5 g/ha [12]: 0%; pest or weed control at 250 g/ha [12]: 0%
CN1C[C@@H](c2ccc(C(F)(F)F)cc2)[C@H](C(=O)Nc2nnnn2C)C1=O (racemic) [Compound 1618],0,0,0,0,0,0,0,0,0,0,0,0,0,0,0,0,0,0,0,0,plant injury at 250 g/ha (corn (Zea mays) [7]): 20%; pest or weed control at 15.625 g/ha [8]: 0%; pest or weed control at 62.5 g/ha [8]: 0%; pest or weed control at 250 g/ha [8]: 20%; pest or weed control at 15.625 g/ha [9]: 0%; pest or weed control at 62.5 g/ha [9]: 0%; pest or weed control at 250 g/ha [9]: 10%; pest or weed control at 15.625 g/ha [10]: 0%; pest or weed control at 62.5 g/ha [10]: 0%; pest or weed control at 250 g/ha [10]: 20%; pest or weed control at 15.625 g/ha [11]: 0%; pest or weed control at 62.5 g/ha [11]: 0%; pest or weed control at 250 g/ha [11]: 20%; pest or weed control at 15.625 g/ha [12]: 0%; pest or weed control at 62.5 g/ha [12]: 0%; pest or weed control at 250 g/ha [12]: 10%
COC(=O)c1sccc1NC(=O)[C@@H]1C(=O)N(C)C[C@H]1c1ccc(C(F)(F)F)cc1 (racemic) [Compound 1621],0,0,0,10,40,40,10,30,30,0,0,0,0,20,10,0,0,0,0,0,plant injury at 250 g/ha (corn (Zea mays) [7]): 0%; pest or weed control at 15.625 g/ha [8]: 0%; pest or weed control at 62.5 g/ha [8]: 0%; pest or weed control at 250 g/ha [8]: 0%; pest or weed control at 15.625 g/ha [9]: 0%; pest or weed control at 62.5 g/ha [9]: 0%; pest or weed control at 250 g/ha [9]: 0%; pest or weed control at 15.625 g/ha [10]: 0%; pest or weed control at 62.5 g/ha [10]: 0%; pest or weed control at 250 g/ha [10]: 0%; pest or weed control at 15.625 g/ha [11]: 0%; pest or weed control at 62.5 g/ha [11]: 0%; pest or weed control at 250 g/ha [11]: 0%; pest or weed control at 15.625 g/ha [12]: 0%; pest or weed control at 62.5 g/ha [12]: 0%; pest or weed control at 250 g/ha [12]: 0%
